Results as given in patent publication US20190263796A1, “LIM KINASE INHIBITORS, PHARMACEUTICAL COMPOSITION AND METHOD OF USE IN LIMK-MEDIATED DISEASES” (CELLIPSE, priority 2016, published 2019).

How the values were obtained:
[1] = biological target: T1, Plk3(h) (Homo sapiens, UniProt Q9H4B4); experiment: KinaseProfiler panel: Plk3(h); type: biochemical; conditions: residual activity, 5 μM inhibitor, Km ATP
T1 construct: purchased Merck-Millipore (KinaseProfiler panel service)
Procedure: (§1) Kinase selectivity was performed on a panel of 58 recombinant protein kinases. The assays were performed in the presence of 5 μM inhibitor at the respective Km ATP for each kinase, using the KinaseProfiler panel service (Merck-Millipore). Residual activity measured in the presence of […] inhibitor is expressed as the percent of activity determined in the absence of inhibitor.

[2] = biological target: T2, CaMKIIδ(h) (Homo sapiens, UniProt Q13557); experiment: KinaseProfiler panel: CaMKIIδ(h); type: biochemical; conditions: residual activity, 5 μM inhibitor, Km ATP
T2 construct: purchased Merck-Millipore (KinaseProfiler panel service)
Procedure: as §1

[3] = biological target: T3, PI3 Kinase (p110a(E542K)/p85a)(h) (Homo sapiens, UniProt P42336, E542K); experiment: KinaseProfiler panel: PI3 Kinase (p110a(E542K)/p85a)(h); type: biochemical; conditions: residual activity, 5 μM inhibitor, Km ATP
T3 construct: purchased Merck-Millipore (KinaseProfiler panel service)
Procedure: as §1

[4] = biological target: T4, Flt3(h) (Homo sapiens, UniProt P36888); experiment: KinaseProfiler panel: Flt3(h); type: biochemical; conditions: residual activity, 5 μM inhibitor, Km ATP
T4 construct: purchased Merck-Millipore (KinaseProfiler panel service)
T4 sequence (P36888 27-993): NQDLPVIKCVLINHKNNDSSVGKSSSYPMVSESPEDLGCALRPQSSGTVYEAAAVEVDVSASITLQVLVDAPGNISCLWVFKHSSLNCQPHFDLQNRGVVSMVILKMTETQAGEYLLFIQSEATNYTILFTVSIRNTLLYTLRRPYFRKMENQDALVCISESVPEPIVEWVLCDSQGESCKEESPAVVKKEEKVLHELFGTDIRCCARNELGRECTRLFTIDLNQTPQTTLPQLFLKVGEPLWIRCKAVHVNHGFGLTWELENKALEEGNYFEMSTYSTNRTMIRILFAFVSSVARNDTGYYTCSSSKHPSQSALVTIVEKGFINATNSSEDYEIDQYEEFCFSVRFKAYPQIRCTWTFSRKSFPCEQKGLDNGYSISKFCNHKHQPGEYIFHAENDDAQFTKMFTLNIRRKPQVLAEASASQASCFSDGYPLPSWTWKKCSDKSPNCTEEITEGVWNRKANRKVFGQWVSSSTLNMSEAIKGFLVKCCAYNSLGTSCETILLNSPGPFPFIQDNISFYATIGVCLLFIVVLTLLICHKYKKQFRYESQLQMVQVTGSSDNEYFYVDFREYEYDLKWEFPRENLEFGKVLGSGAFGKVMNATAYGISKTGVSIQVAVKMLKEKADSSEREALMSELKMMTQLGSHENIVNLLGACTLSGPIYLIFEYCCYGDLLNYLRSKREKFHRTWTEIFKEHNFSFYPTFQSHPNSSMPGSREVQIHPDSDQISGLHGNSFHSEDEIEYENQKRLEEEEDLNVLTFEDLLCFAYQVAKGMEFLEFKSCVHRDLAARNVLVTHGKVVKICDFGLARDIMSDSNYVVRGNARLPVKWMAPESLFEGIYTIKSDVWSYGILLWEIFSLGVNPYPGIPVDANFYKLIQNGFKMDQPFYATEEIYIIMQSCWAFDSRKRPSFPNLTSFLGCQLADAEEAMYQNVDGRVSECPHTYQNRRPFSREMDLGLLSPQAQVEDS
Procedure: as §1

[5] = biological target: T5, PKBα(h) (Homo sapiens, UniProt P31749); experiment: KinaseProfiler panel: PKBα(h); type: biochemical; conditions: residual activity, 5 μM inhibitor, Km ATP
T5 construct: purchased Merck-Millipore (KinaseProfiler panel service)
T5 sequence (P31749 whole entry): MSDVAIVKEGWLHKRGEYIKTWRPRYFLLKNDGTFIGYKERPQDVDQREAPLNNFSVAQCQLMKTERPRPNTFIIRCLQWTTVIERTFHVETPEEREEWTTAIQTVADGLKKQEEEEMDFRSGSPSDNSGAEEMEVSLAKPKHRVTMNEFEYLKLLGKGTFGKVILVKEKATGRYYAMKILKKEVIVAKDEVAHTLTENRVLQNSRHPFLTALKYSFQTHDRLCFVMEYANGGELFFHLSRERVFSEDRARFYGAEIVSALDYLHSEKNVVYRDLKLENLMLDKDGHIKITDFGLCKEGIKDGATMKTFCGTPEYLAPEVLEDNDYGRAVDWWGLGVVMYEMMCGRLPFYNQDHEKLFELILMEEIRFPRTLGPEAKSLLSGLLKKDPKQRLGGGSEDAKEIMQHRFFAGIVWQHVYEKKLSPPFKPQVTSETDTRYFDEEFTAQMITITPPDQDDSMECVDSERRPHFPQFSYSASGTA
Procedure: as §1

[6] = biological target: T6, FGFR1(h) (Homo sapiens, UniProt P11362); experiment: KinaseProfiler panel: FGFR1(h); type: biochemical; conditions: residual activity, 5 μM inhibitor, Km ATP
T6 construct: purchased Merck-Millipore (KinaseProfiler panel service)
Procedure: as §1

[7] = biological target: T7, KDR(h) (Homo sapiens, UniProt P35968); experiment: KinaseProfiler panel: KDR(h); type: biochemical; conditions: residual activity, 5 μM inhibitor, Km ATP
T7 construct: purchased Merck-Millipore (KinaseProfiler panel service)
T7 sequence (P35968 20-1356): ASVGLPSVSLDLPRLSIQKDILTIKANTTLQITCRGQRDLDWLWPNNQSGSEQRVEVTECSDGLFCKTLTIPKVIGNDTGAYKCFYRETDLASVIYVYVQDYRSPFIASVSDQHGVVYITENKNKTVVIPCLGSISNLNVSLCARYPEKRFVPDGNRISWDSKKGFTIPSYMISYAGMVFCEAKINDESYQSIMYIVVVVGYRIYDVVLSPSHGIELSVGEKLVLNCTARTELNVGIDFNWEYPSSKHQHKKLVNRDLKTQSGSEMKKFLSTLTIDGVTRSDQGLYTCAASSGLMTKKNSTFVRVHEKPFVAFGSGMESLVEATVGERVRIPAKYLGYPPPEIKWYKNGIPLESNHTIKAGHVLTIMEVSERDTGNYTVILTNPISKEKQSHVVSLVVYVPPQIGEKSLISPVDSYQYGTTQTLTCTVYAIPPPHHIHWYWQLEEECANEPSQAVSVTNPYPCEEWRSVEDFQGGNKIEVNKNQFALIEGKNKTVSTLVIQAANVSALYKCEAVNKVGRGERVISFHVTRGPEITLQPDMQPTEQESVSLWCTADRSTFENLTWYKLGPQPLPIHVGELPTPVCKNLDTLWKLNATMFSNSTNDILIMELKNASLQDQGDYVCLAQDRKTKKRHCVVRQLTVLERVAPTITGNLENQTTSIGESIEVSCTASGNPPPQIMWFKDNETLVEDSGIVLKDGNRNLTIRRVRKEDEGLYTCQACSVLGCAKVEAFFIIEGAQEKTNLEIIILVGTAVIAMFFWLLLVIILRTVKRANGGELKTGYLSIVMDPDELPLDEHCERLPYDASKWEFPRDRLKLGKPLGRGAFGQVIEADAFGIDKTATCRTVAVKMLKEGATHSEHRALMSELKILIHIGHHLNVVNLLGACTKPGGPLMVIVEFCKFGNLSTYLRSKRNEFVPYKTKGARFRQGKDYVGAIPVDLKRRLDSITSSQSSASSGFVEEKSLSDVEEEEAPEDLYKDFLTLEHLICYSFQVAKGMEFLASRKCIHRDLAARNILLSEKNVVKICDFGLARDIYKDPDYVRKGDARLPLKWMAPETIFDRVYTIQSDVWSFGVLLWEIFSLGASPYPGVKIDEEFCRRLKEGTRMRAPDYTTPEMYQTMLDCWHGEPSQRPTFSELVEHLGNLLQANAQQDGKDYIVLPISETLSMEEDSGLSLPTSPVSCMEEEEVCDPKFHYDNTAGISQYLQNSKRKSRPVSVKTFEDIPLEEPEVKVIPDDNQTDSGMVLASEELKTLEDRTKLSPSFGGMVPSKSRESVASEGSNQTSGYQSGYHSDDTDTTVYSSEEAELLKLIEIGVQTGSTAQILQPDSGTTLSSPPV
Procedure: as §1

[8] = biological target: T8, Src(1-530)(h) (Homo sapiens, UniProt P12931); experiment: KinaseProfiler panel: Src(1-530)(h); type: biochemical; conditions: residual activity, 5 μM inhibitor, Km ATP
T8 construct: Src(1-530)(h); purchased Merck-Millipore (KinaseProfiler panel service)
Procedure: as §1

[9] = biological target: T9, LKB1(h) (Homo sapiens, UniProt Q15831); experiment: KinaseProfiler panel: LKB1(h); type: biochemical; conditions: residual activity, 5 μM inhibitor, Km ATP
T9 construct: purchased Merck-Millipore (KinaseProfiler panel service)
Procedure: as §1

[10] = biological target: T10, TrkA(h) (Homo sapiens, UniProt P04629); experiment: KinaseProfiler panel: TrkA(h); type: biochemical; conditions: residual activity, 5 μM inhibitor, Km ATP
T10 construct: purchased Merck-Millipore (KinaseProfiler panel service)
Procedure: as §1

[11] = biological target: T11, Aurora-B(h) (Homo sapiens, UniProt Q96GD4); experiment: KinaseProfiler panel: Aurora-B(h); type: biochemical; conditions: residual activity, 5 μM inhibitor, Km ATP
T11 construct: purchased Merck-Millipore (KinaseProfiler panel service)
Procedure: as §1

[12] = biological target: T12, MKK4(m) (Mus musculus, UniProt P47809); experiment: KinaseProfiler panel: MKK4(m); type: biochemical; conditions: residual activity, 5 μM inhibitor, Km ATP
T12 construct: purchased Merck-Millipore (KinaseProfiler panel service)
Procedure: as §1

[13] = biological target: T13, FAK(h) (Homo sapiens, UniProt Q05397); experiment: KinaseProfiler panel: FAK(h); type: biochemical; conditions: residual activity, 5 μM inhibitor, Km ATP
T13 construct: purchased Merck-Millipore (KinaseProfiler panel service)
Procedure: as §1

[14] = biological target: T14, PAK5(h) (Homo sapiens, UniProt Q9P286); experiment: KinaseProfiler panel: PAK5(h); type: biochemical; conditions: residual activity, 5 μM inhibitor, Km ATP
T14 construct: purchased Merck-Millipore (KinaseProfiler panel service)
Procedure: as §1

[15] = biological target: T15, MRCKα(h) (Homo sapiens, UniProt Q5VT25); experiment: KinaseProfiler panel: MRCKα(h); type: biochemical; conditions: residual activity, 5 μM inhibitor, Km ATP
T15 construct: purchased Merck-Millipore (KinaseProfiler panel service)
Procedure: as §1

[16] = biological target: T16, MEK1(h) (Homo sapiens, UniProt Q02750); experiment: KinaseProfiler panel: MEK1(h); type: biochemical; conditions: residual activity, 5 μM inhibitor, Km ATP
T16 construct: purchased Merck-Millipore (KinaseProfiler panel service)
T16 sequence (Q02750 whole entry): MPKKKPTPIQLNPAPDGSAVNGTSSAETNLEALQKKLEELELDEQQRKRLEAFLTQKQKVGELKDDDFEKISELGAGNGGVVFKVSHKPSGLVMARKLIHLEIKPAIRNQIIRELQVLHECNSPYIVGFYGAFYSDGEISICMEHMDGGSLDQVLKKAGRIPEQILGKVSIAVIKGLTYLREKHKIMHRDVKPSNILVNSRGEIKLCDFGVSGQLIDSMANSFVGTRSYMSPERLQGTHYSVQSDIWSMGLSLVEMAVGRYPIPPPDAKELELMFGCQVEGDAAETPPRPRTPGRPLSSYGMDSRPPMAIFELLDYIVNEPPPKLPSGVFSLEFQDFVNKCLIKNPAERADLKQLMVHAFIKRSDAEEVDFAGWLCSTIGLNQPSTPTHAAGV
Procedure: as §1

[17] = biological target: T17, PAK2(h) (Homo sapiens, UniProt Q13177); experiment: KinaseProfiler panel: PAK2(h); type: biochemical; conditions: residual activity, 5 μM inhibitor, Km ATP
T17 construct: purchased Merck-Millipore (KinaseProfiler panel service)
Procedure: as §1

[18] = biological target: T18, PAK3(h) (Homo sapiens, UniProt O75914); experiment: KinaseProfiler panel: PAK3(h); type: biochemical; conditions: residual activity, 5 μM inhibitor, Km ATP
T18 construct: purchased Merck-Millipore (KinaseProfiler panel service)
Procedure: as §1

[19] = biological target: T19, Ret(h) (Homo sapiens, UniProt P07949); experiment: KinaseProfiler panel: Ret(h); type: biochemical; conditions: residual activity, 5 μM inhibitor, Km ATP
T19 construct: purchased Merck-Millipore (KinaseProfiler panel service)
T19 sequence (P07949 29-1114): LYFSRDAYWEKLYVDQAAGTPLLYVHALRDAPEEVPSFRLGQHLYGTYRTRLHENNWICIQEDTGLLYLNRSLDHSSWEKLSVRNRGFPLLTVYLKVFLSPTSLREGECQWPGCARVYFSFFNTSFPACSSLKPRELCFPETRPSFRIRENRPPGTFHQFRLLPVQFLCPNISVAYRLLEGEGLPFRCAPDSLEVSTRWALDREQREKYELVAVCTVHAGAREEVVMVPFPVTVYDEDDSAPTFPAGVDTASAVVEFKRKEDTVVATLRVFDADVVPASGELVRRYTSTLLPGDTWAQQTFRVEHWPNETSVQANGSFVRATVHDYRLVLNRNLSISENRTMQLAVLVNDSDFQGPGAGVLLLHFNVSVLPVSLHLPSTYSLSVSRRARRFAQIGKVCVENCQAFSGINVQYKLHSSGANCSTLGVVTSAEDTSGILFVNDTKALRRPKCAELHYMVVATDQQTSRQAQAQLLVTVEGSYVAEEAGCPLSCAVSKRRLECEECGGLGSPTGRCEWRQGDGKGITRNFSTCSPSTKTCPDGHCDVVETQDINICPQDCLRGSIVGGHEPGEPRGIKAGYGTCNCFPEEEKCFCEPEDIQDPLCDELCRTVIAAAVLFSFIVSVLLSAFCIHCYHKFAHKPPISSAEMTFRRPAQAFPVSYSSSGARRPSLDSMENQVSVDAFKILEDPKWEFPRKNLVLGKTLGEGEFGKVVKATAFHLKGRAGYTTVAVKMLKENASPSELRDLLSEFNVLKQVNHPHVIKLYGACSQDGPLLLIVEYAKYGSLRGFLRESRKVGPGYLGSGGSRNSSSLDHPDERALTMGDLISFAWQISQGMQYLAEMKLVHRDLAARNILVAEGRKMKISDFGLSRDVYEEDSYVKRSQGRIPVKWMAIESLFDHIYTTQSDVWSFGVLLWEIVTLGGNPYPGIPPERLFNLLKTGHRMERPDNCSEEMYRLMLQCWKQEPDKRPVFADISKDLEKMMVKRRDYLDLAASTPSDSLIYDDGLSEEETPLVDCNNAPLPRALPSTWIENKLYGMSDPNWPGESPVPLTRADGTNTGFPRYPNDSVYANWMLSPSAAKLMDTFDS
Procedure: as §1

[20] = biological target: T20, cKit(V560G)(h) (Homo sapiens, UniProt P10721, V560G); experiment: KinaseProfiler panel: cKit(V560G)(h); type: biochemical; conditions: residual activity, 5 μM inhibitor, Km ATP
T20 construct: purchased Merck-Millipore (KinaseProfiler panel service)
Procedure: as §1

[21] = biological target: T21, Flt4(h) (Homo sapiens, UniProt P35916); experiment: KinaseProfiler panel: Flt4(h); type: biochemical; conditions: residual activity, 5 μM inhibitor, Km ATP
T21 construct: purchased Merck-Millipore (KinaseProfiler panel service)
Procedure: as §1

[22] = biological target: T22, MRCKβ(h) (Homo sapiens, UniProt Q9Y5S2); experiment: KinaseProfiler panel: MRCKβ(h); type: biochemical; conditions: residual activity, 5 μM inhibitor, Km ATP
T22 construct: purchased Merck-Millipore (KinaseProfiler panel service)
Procedure: as §1

[23] = biological target: T23, BTK(h) (Homo sapiens, UniProt Q06187); experiment: KinaseProfiler panel: BTK(h); type: biochemical; conditions: residual activity, 5 μM inhibitor, Km ATP
T23 construct: purchased Merck-Millipore (KinaseProfiler panel service)
Procedure: as §1

[24] = biological target: T24, IGF-1R(h), activated (Homo sapiens, UniProt P08069); experiment: KinaseProfiler panel: IGF-1R(h), activated; type: biochemical; conditions: residual activity, 5 μM inhibitor, Km ATP
T24 construct: purchased Merck-Millipore (KinaseProfiler panel service)
Procedure: as §1

[25] = tested on: Phospho-Ser3-Cofilin/Total Cofilin; experiment: Western blot of cellular cofilin phosphorylation status, MV4-11 (II.4); type: cell-based; conditions: Homo sapiens; MV4-11 cells; 2 h treatment
Procedure: MV4-11 cell line was originally purchased from the American Type Culture Collection (ATCC). MV4-11 cells are cultured in RPMI 1640 10% (v/v) FBS supplemented with 100 U/mL^−1 penicillin, 0.1 mg·mL^−1 streptomycin (PAN Biotech P06-07100) and 2 mM Glutamine (Sigma-Aldrich 59202C). Cells were maintained at 37° C. with 5% CO2.
In a 6 wells plate (Falcon 353046), 2·10^6 cells in 1.5 mL medium are treated for 2 h with compounds. Cells are then collected and cell lysis is performed at 4° C. using RIPA buffer supplemented with protease inhibitors cocktail (Sigma-Aldrich P8340) and phosphatase inhibitors cocktail (Sigma-Aldrich P5726). Following centrifugation 30 min 15000 g 4° C., supernatants are mixed with Laemmli buffer and denaturation is performed by heating 5 min 95° C. 10 μL of samples are subjected to electrophoresis on 15% SDS-PAGE. After electro-transfer (Mini Transblot, Bio-Rad), the PVDF membrane (Merck-Millipore Immobilon P IPVH00010) is blocked with Tris Buffered Saline, pH 7.4 (TBS) with 0.1% Tween 20 and 5% BSA for 1 h RT under agitation. The membrane was rinsed 3 times 10 min RT under agitation with TBS, 0.1% Tween-20 (TBST) and then 1 h RT with anti-phospho-Ser3-cofilin (Cell Signaling Technology #3313, 1/1000 dilution) antibody or anti-cofilin (Cell Signaling Technology #3312, 1/1000 dilution) diluted in TBS, 0.1% Tween 20 and 1% BSA. The membrane is then rinsed 3 times 10 min RT under agitation in TBST and incubated for 1 hour with anti-rabbit secondary antibody, horseradish peroxidase conjugated (Jackson Immunoresearch #711-036-152) under agitation at room temperature. After three washes 10 min RT in TBST, the detection of total or phosphorylated cofilin was performed using chemiluminescence kit ECL™ Plus (GE Healthcare RPN2132). For each concentration of compound, ratio between phosphorylated cofilin and total cofilin is determined. This ratio is then expressed as percentage of control ratio (i.e ratio from DMSO treated cells). IC50 is then determined.

[26] = biological target: T25, A-Raf(h) (Homo sapiens, UniProt P10398); experiment: KinaseProfiler panel: A-Raf(h); type: biochemical; conditions: residual activity, 5 μM inhibitor, Km ATP
T25 construct: purchased Merck-Millipore (KinaseProfiler panel service)
Procedure: as §1

T1 sequence (Q9H4B4 whole entry): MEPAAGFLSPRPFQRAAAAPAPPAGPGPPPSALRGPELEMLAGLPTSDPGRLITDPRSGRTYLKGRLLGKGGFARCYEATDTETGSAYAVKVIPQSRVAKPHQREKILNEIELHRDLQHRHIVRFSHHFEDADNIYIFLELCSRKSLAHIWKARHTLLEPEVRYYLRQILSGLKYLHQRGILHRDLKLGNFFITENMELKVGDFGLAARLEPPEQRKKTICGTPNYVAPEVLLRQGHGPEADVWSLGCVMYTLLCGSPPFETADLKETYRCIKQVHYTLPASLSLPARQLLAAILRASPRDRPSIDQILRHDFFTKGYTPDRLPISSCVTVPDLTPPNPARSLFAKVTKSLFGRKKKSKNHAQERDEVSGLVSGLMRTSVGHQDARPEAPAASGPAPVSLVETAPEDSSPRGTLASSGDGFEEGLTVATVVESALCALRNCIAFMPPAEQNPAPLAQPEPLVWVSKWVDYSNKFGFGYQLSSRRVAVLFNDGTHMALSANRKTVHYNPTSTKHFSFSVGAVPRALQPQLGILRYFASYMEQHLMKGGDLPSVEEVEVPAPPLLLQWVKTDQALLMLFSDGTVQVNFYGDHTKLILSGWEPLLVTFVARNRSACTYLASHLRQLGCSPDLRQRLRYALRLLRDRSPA

## CC(C)(C)c1nc(-c2cccc(NS(=O)(=O)c3c(F)cccc3F)c2F)c(-c2ccnc(Nc3ccccc3)n2)s1 [Compound 1, N-(3-(2-(tert-butyl)-5-(2-(phenylamino)pyrimidin-4-yl)thiazol-4-yl)-2-fluorophenyl)-2,6-difluorobenzenesulfonamide]
[1]
  activity at 5 µM: ≥ 50%
[2]
  activity at 5 µM: ≥ 50%
[3]
  activity at 5 µM: ≥ 50%
[4]
  activity at 5 µM: ≥ 50%
[5]
  activity at 5 µM: ≥ 50%
[6]
  activity at 5 µM: ≥ 50%
[7]
  activity at 5 µM: 10 to 50%
[8]
  activity at 5 µM: 3 to 10%
[9]
  activity at 5 µM: ≥ 50%
[10]
  activity at 5 µM: 10 to 50%
[11]
  activity at 5 µM: 10 to 50%
[12]
  activity at 5 µM: ≥ 50%
[13]
  activity at 5 µM: ≥ 50%
[14]
  activity at 5 µM: ≥ 50%
[15]
  activity at 5 µM: ≥ 50%
[16]
  activity at 5 µM: ≥ 50%
[17]
  activity at 5 µM: ≥ 50%
[18]
  activity at 5 µM: ≥ 50%
[19]
  activity at 5 µM: 10 to 50%
[20]
  activity at 5 µM: 10 to 50%
[21]
  activity at 5 µM: 3 to 10%
[22]
  activity at 5 µM: ≥ 50%
[23]
  activity at 5 µM: 10 to 50%
[24]
  activity at 5 µM: ≥ 50%
[25]
  IC50: < 0.2 µM
[26]
  activity at 5 µM: ≥ 50%
